# Test results from ChEMBL document CHEMBL1127448, “Synthesis, ligand binding, and QSAR (CoMFA and classical) study of 3 beta-(3'-substituted phenyl)-, 3 beta-(4'-substituted phenyl)-, and 3 beta-(3',4'-disubstituted phenyl)tropane-2 beta-carboxylic acid methyl esters” (J Med Chem, 1994).
# Target: Sodium-dependent dopamine transporter (Rattus norvegicus, UniProt P23977)
# Assay: Concentration required to inhibit 50% of radioligand binding ([3H]WIN-35428) to the dopamine (DA) transporter in rat
# Chain of Sodium-dependent dopamine transporter (P23977 whole entry): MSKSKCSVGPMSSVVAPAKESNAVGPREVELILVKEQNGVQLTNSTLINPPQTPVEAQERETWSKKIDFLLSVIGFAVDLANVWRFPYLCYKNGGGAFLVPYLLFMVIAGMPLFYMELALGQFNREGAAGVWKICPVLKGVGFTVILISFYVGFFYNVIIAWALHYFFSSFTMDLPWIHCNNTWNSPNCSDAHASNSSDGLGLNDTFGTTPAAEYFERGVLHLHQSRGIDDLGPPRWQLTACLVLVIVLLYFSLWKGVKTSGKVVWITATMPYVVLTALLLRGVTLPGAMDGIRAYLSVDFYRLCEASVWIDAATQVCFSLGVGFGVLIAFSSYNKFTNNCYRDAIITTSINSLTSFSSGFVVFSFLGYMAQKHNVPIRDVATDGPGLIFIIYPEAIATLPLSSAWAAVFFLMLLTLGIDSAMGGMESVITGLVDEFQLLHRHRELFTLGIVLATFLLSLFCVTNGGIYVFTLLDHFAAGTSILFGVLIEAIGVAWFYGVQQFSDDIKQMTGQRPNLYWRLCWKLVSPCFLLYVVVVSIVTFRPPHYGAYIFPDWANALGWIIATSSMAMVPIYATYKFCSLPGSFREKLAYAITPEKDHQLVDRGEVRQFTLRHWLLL
row,Compound,IC50
1,CCC(=O)Nc1ccc([C@H]2C[C@H]3CCC([C@H]2C(=O)OC)N3C)cc1,121 nM
2,COC(=O)C1C2CC[C@H](C[C@H]1c1ccc(Br)cc1)N2C (some centres not stated),1.69 nM
3,COC(=O)C1C2CC[C@@H](C[C@@H]1c1ccc([N+](=O)[O-])cc1)N2C (some centres not stated),13.1 nM
4,COC(=O)C1C2CC[C@H](C[C@H]1c1ccc(Cl)c(Cl)c1)N2C (some centres not stated),0.79 nM
5,COC(=O)C1C2CC[C@H](C[C@@H]1c1cccc(I)c1)N2C (some centres not stated),26.1 nM
6,COC(=O)C1C2CC[C@H](C[C@@H]1c1cccc(Cl)c1)N2C (some centres not stated),6.27 nM
7,COC(=O)C1C2CC[C@H](C[C@@H]1c1cccc(F)c1)N2C (some centres not stated),16.4 nM
8,COC(=O)C1C2CC[C@H](C[C@@H]1c1ccc(N)c(Br)c1)N2C (some centres not stated),3.91 nM
9,COC(=O)C1C2CC[C@H](C[C@@H]1c1ccc(N)c(I)c1)N2C (some centres not stated),1.35 nM
10,COC(=O)C1C2CC[C@H](C[C@@H]1c1ccc(O)cc1)N2C (some centres not stated),12.1 nM
11,COC(=O)[C@@H]1C2CC[C@H](C[C@@H]1c1ccc(N)cc1)N2C,9.84 nM
12,COC(=O)C1C2CC[C@H](C[C@@H]1c1ccc(F)c(C)c1)N2C (stereo in doubt; 2x),2.95 nM
